The series is described as follows: Loading of curcumin to polymeric micelles, UV-vis spectroscopy. It counts as physicochemical. How it is done: The solution was added dropwise to 3 mL deionized water under stirring at room temperature. The solution was stirred for another 30 min and then dialyzed against deionized water for 24 h (MW cutoff=3500). The solution inside dialysis tubing was collected.

For `COc1cc(/C=C/C(=O)CC(=O)/C=C/c2ccc(O)c(OC)c2)ccc1O` [curcumin, Curcumin], the “effective concentration of curcumin dispersed in micelle solution” value (copolymer 1 micelle solution) amounted to 187 µg/mL. In addition, under “in hydrophobic micellar cores”, the protection from hydrolysis result is “effectively protect curcumin from hydrolysis”.

The values are drawn from US9944630B1, “Dithiolane carbonate monomers and polymers thereof” (The Board of Trustees of the Leland Stanford Junior …, priority 2014, dated 2018).
